# Laboratory results taken from patent US10639289B2, “Application of neuraminidase and inhibitors thereof in myocardial ischemia and myocardial infarction” (CHINA PHARMACEUTICAL UNIVERSITY, priority 2016, dated 2020).
# Columns and labels:
# [1] = tested on: isoproterenol-induced acute myocardial ischemia; assay: Electrocardiogram in the acute myocardial ischemia model in rats with ISO; type: in vivo, SD rats; details: for Impact on the ECG (myocardial damage): all dose groups, in words
# Description: (§1) 1. The acute myocardial ischemia model in rats with ISO: SD rats are selected and divided according to body weight into six groups: blank control group, model group, ZA high dose group (0.5 mg/kg iv) and ZA low dose group (0.2 mg/kg iv), OS high dose group (10 mg/kg po), OS low dose group (5 mg/kg po), with 10 rats in each group. The groups with drug administration are administered the drugs continuously for 3 days, and on the second day of drug administration, and 30 minutes after the drug administration, they are performed subcutaneous injection of ISO at a dose of 60 mg/kg; on the third day of drug administration, and 30 minutes after the drug administration, they are also performed subcutaneous injection of ISO at a dose of 60 mg/kg; on the fourth day their tissue samples such as blood and heart are collected on the fourth day.
# 3.1 Record the Electrocardiogram
# Record the electrocardiogram of each group using standard II lead
# (§2) 1. The acute myocardial ischemia model in rats with ISO: SD rats are selected and divided according to body weight into five groups: blank control group, model group, coptisine high dose group (100 mg/kg p.o.) and coptisine medium dose group 25 mg/kg p.o.), coptisine low dose group (10 mg/kg p.o.), with 10 rats in each group. The groups with drug administration are administered the drugs continuously for 3 days, and on the second day of drug administration, and 30 minutes after the drug administration, they are performed subcutaneous injection of ISO at a dose of 60 mg/kg; on the third day of drug administration, and 30 minutes after the drug administration, they are also performed subcutaneous injection of ISO at a dose of 60 mg/kg; on the fourth day their tissue samples such as blood and heart are collected on the fourth day.
# 3.1 Record ECG: Same as Embodiment 1.
# [2] = tested on: isoproterenol-induced acute myocardial ischemia; assay: Cardiac pathology (HE sections) in the acute myocardial ischemia model in rats with ISO; type: in vivo, SD rats; details: for Effect on myocardial cell morphology (cardiac pathological sections): all dose groups, in words
# Description: as §1
# 3.2 Observe the Cardiac Pathology
# Fix the myocardial tissue of the apical site of the hearts in 10% formaldehyde solution, obtain material conventionally, perform dehydration, embedding in paraffin, and make it into sheets (4 μm thick), stain them with HE, and observe them under an optical microscope.
# as §2
# 3.2 Observing the pathological section of the heart: same as in Embodiment 1.
# myocardial neuraminidase = assay: Myocardial neuraminidase level by ELISA after isoproterenol modeling; type: in vivo, SD rats; details: ISO model rats; for Effect on the expression level of myocardial neuraminidase: ELISA, in words; for Neuraminidase concentration (myocardial neuraminidase expression level): 3 days
# Description: as §1, with “day. […]” for “day.”
# 3.3 Determination of Myocardial Neuraminidase Level
# The level of myocardial neuraminidase in the rat is detected by […], and the detection kit is a neuraminidase detection kit, which is measured according to the instruction manual of the test kit.
# as §2
# 3.3 Method for determination of myocardial neuraminidase level: same as in Embodiment 1.
# [3] = tested on: left anterior descending coronary artery ligation model; assay: Acute myocardial ischemia model in rats with left anterior descending coronary artery ligation; type: in vivo, SD rats; details: in words
# Description: 2. The acute myocardial ischemia model in rats with left anterior descending coronary artery ligation: SD rats are selected and divided into 6 groups according to body weight: blank control group, model group, ZA high dose group (0.5 mg/kg iv). ZA low dose group, (0.2 mg/kg iv), OS high-dose group (10 mg/kg po) and OS low-dose group (5 mg/kg po), with 10 rats in each group. The groups with drug administration are pre-administered drugs 24 h and 12 h in advance before the rats are anesthetized with 3% chloral hydrate at 10 ml/kg, laid flat on their backs and fixed on the rat plate. Then cut them open at between left 4th and 5th ribs to open the pericardium, expose the heart, gently press the thorax to extrude the heart, find the left anterior descending coronary artery in the pulmonary artery cone and left atrium, and immediately bind the root of the left anterior descending coronary artery (pulmonary artery cone and left atrial appendage) with suture 0; push the heart back to the chest, and squeeze out the blood and gas in the chest cavity, close the chest cavity quickly, suture the skin, and the chest opening time is no more than 30 s. […]
# The level of myocardial neuraminidase in the rat is detected by […], and the detection kit is a neuraminidase detection kit, which is measured according to the instruction manual of the test kit. […]
# serum CK-MB and D-LDH = assay: Serum myocardial damage indicators CK-MB and D-LDH after isoproterenol modeling; type: in vivo, SD rats; parameters: Serum CK-MB concentration: unit not given here; details: ISO model rats; for Serum CK-MB concentration / Serum D-LDH concentration: 3 days
# Description: as §1
# 3.4 the Detection Method for Serum Myocardial Damage Indicator CK-MB and D-LDH
# Measure CK-MB and D-LDH according to the CK-MB detection kit (Roche) and D-LDH detection kit (Invitrogen) operating instructions, respectively.
# as §2
# 3.4 Detection method for serum myocardial damage index CK-MB and D-LDH: same as in Embodiment 1.
# neuraminidase = assay: Inhibitory rate on neuraminidase (neuraminidase assay kit, fluorescence); type: biochemical
# Description: 3.5 Determination of the inhibitory rate of coptisine on neuraminidase
# Neuraminidase activity is determined using a neuraminidase assay kit. Accurately weigh standard coptisine, and prepare 200 μM (high dose group), 100 μM (medium dose group), and 50 μM (low dose group) solution in that order. To prepare a standard curve, add 70 μl of neuraminidase assay buffer to each well in a 96-well fluorescent plate, and add 0, 1, 2, 5, 7.5 and 10 μl of neuraminidase to each well, respectively. Then add […] of Milli-Q water per well so the total volume of each well is 90 μl. To test the sample, add 70 μl of neuraminidase detection buffer to each well of a 96-well fluorescent plate, then add 10 μl of neuraminidase and 10 μl of coptisine solution in different concentrations per well. Add 0-10 μl of Milli-Q water per well so the total volume of each well is 90 After shaking for about 1 minute, incubate at 37° C. for 2 minutes so the inhibitor fully interacts with neuraminidase; then add 10 μl of neuraminidase fluorescein substrate per well, mix by shaking, incubate at 37° C. for 30 minutes and then perform fluorescence measurement at excitation wavelength 322 nm and emission wavelength of 450 nm.
# [4] = oseltamivir phosphate high dose group, 10 mg/kg po
# [5] = oseltamivir phosphate low dose group, 5 mg/kg po
# [6] = zanamivir high dose group, 0.5 mg/kg iv
# [7] = zanamivir low dose group, 0.2 mg/kg iv
# [8] = high dose coptisine group, 100 mg/kg p.o.
# [9] = low dose coptisine group, 10 mg/kg p.o.
# [10] = medium dose coptisine group, 25 mg/kg p.o.
compound,measurement,setting,value
"CCOC(=O)C1=C[C@@H](OC(CC)CC)[C@H](NC(C)=O)[C@@H](N)C1 [Oseltamivir phosphate, oseltamivir phosphate]",Impact on the ECG (myocardial damage),[1],effectively improve myocardial damage in a dose-dependent manner
same,Effect on myocardial cell morphology (cardiac pathological sections),[2],effective in improving myocardial damage in a dose-dependent manner
same,Effect on the expression level of myocardial neuraminidase,myocardial neuraminidase,effective in inhibiting the increase in neuraminidase expression induced by myocardial ischemia in a dose-dependent manner
same,Neuraminidase concentration (myocardial neuraminidase expression level),myocardial neuraminidase; [4],16.7202 U/μL
same,Neuraminidase concentration (myocardial neuraminidase expression level),myocardial neuraminidase; [5],21.547 U/μL
same,Electrocardiogram and cardiac pathology,[3],significantly improve electrocardiogram and cardiac pathology in rats
same,Serum CK-MB concentration,serum CK-MB and D-LDH; [4],2846.67
same,Serum D-LDH concentration,serum CK-MB and D-LDH; [4],7.208 mU/ml
same,Serum CK-MB concentration,serum CK-MB and D-LDH; [5],2964.44
same,Serum D-LDH concentration,serum CK-MB and D-LDH; [5],7.793 mU/ml
"CC(=O)N[C@H]1[C@H]([C@H](O)[C@H](O)CO)OC(C(=O)O)=C[C@@H]1N=C(N)N [Zanamivir, zanamivir]",Impact on the ECG (myocardial damage),[1],effectively improve myocardial damage in a dose-dependent manner
same,Effect on myocardial cell morphology (cardiac pathological sections),[2],effective in improving myocardial damage in a dose-dependent manner
same,Effect on the expression level of myocardial neuraminidase,myocardial neuraminidase,effective in inhibiting the increase in neuraminidase expression induced by myocardial ischemia in a dose-dependent manner
same,Neuraminidase concentration (myocardial neuraminidase expression level),myocardial neuraminidase; [6],16.9244 U/μL
same,Neuraminidase concentration (myocardial neuraminidase expression level),myocardial neuraminidase; [7],21.8341 U/μL
same,Electrocardiogram and cardiac pathology,[3],significantly improve electrocardiogram and cardiac pathology in rats
same,Serum CK-MB concentration,serum CK-MB and D-LDH; [6],3544.44
same,Serum D-LDH concentration,serum CK-MB and D-LDH; [6],8.383 mU/ml
same,Serum CK-MB concentration,serum CK-MB and D-LDH; [7],3713.33
same,Serum D-LDH concentration,serum CK-MB and D-LDH; [7],8.804 mU/ml
c1c2c(cc3c1OCO3)-c1cc3ccc4c(c3c[n+]1CC2)OCO4 [coptisine],Impact on the ECG (myocardial damage),[1],effectively improve myocardial damage in a dose-dependent manner
same,Electrocardiogram compared with blank control group,[1]; [8],basically consistent with the blank control group
same,Effect on myocardial cell morphology (cardiac pathological sections),[2],effectively improve myocardial damage in a dose-dependent manner
same,Inflammatory cell infiltration,[2]; [8],no inflammatory cell infiltration
same,Myocardial cell morphology and intercellular fissure compared with blank control group,[2]; [8],basically consistent with the blank control group
same,Effect on the expression level of myocardial neuraminidase,myocardial neuraminidase,effectively inhibit the increase of neuraminidase expression induced by myocardial ischemia in a dose-dependent manner
same,Reduction of myocardial neuraminidase expression compared with the model group,myocardial neuraminidase; [8],about 40%
same,Reduction of myocardial neuraminidase expression compared with the model group,myocardial neuraminidase; [9],about 21%
same,Reduction of myocardial neuraminidase expression compared with the model group,myocardial neuraminidase; [10],about 29%
same,"Neuraminidase inhibition, assessment in words",neuraminidase; 50-200 μM,potent neuraminidase inhibitor
same,Inhibitory rate on neuraminidase,neuraminidase; coptisine concentration 50 μM,5.64%
same,Inhibitory rate on neuraminidase,neuraminidase; coptisine concentration 100 μM,28.69%
same,Inhibitory rate on neuraminidase,neuraminidase; coptisine concentration 200 μM,56.25%
same,Reduction of serum CK-MB and LDH levels compared with the model group,serum CK-MB and D-LDH; [8],about 40%
same,Reduction of serum CK-MB and LDH levels compared with the model group,serum CK-MB and D-LDH; [9],about 20%
same,Reduction of serum CK-MB and LDH levels compared with the model group,serum CK-MB and D-LDH; [10],about 30%
